Laboratory results from US11440907B1 (Merck Patent GmbH, priority 2018, dated 2022).

Key:
[1] = system: β-catenin-TCF-mediated reporter transcription activity in Colo 205 cells; experiment: Colo 205 reporter assay (TCF/LEF promoter-driven firefly luciferase); type: cell-based; details: Homo sapiens; Colo 205 TCF/LEF luciferase reporter, 5 hours after compound addition, 384 well; read-out: Colo205 IC50
[2] = system: XBP1(u)-luciferase splicing reporter in HepG2 hepatoma cells; experiment: HepG2 XBP1 reporter assay (XBP1(u)-Luc); type: cell-based; details: Homo sapiens, 6 hours after compound addition, Table 3, read-out: XBP1-luc HepG2 1 EC50
[3] = system: intracellular calcium flux in Colo-205 cells; experiment: Calcium flux assay (FLIPR Calcium 5 Assay Kit, FLIPR3); type: cell-based; details: Homo sapiens, 0.6 h, calcium flux measured over 36 minutes, read-out: Colo 205 Calcium Flux assay 384w Boston Ca assay FLIPR3 Colo EC50
Experimental: Compounds described herein induced ER stress by causing intracellular calcium flux. Calcium flux was measured in Colo-205 cells using the FLIPR® Calcium 5 Assay Kit according to manufacturer's protocol (Molecular Devices, Cat. #R8186) on a FLIPR3 system (Molecular Devices). Calcium flux is measured over 36 minutes. The Colo-205 calcium flux assay data are summarized in Table 3: A<0.6 μM; 0.6 μM≤B<2.0 μM; 2.0 μM≤C<10.0 μM; D≥10.0 μM.

SMILES	melting point	IC50 [1]	EC50 [2]	EC50 [3]
Cc1cc(N2CCCOCC2c2cc(C(O)C(F)(F)F)ccc2Cl)nc(N)n1 (racemic) [I-134, (+/−)-1-(3-(4-(2-amino-6-methylpyrimidin-4-yl)-1,4-oxazepan-3-yl)-4-chlorophenyl)-2,2,2-trifluoroethan-1-ol]	110 °C	300 to 1000 nM		
Cc1cc(N2CCCOCC2c2cc(NC(=O)CN(C)C)ccc2Cl)nc(N)n1 (racemic) [I-168, (+/−)-N-[3-[4-(2-amino-6-methyl-pyrimidin-4-yl)-1,4-oxazepan-3-yl]-4-chloro-phenyl]-2-(dimethylamino)acetamide]	95 to 97 °C	300 to 1000 nM		
CCNc1cc(C2COCCCN2c2cc(C)nc(N)n2)c(Cl)cc1F (racemic) [I-272, (+/−)-4-[3-[2-chloro-5-(ethylamino)-4-fluoro-phenyl]-1,4-oxazepan-4-yl]-6-methyl-pyrimidin-2-amine]	180 °C	300 to 1000 nM	600 to 2000 nM	
Cc1cc(N2CCCOCC2c2ccc(NC(=O)C(F)F)cc2Cl)nc(N)n1 (racemic) [I-278, (+/−)-N-(4-(4-(2-amino-6-methylpyrimidin-4-yl)-1,4-oxazepan-3-yl)-3-chlorophenyl)-2,2-difluoroacetamide]	188 to 190 °C	< 300 nM	< 600 nM	
Cc1cc(N2CCCOC[C@@H]2c2cc(NS(C)(=O)=O)ccc2Cl)nc(N)n1 (single isomer, unassigned) [I-161]	160 °C	< 300 nM	< 600 nM	
Cc1cc(N2CCCOC[C@@H]2c2ccc(Br)cc2Cl)nc(N)n1 (single isomer, unassigned) [I-201]	100 to 102 °C	300 to 1000 nM	< 600 nM	< 600 nM
